From patent US5457092A, “Methods of promoting bone growth in mammals comprising administration of modified parathyroid hormone” (Gesellschaft fur Biotechnologische Forschung mbH (GBF), priority 1987, dated 1995)
Where two headings read alike, the source gives them in different places.

Columns and labels:
[1] = test system: rat epiphysial cartilage cell cultures; assay: DNA synthesis in rat epiphysial cartilage cell cultures; format: cell-based; settings: for [^3 H]Thymidine incorporation into DNA: 100 nM, control 350 ± 25
[2] = test system: rat epiphysial cartilage cell cultures; assay: CK specific activity in rat epiphysial cartilage cell cultures; format: cell-based; settings: for CK specific activity: 100 nM, control 225 ± 32
Protocol: To compare the stimulations seen in osteoblast-like cells (FIGS. 10 and 11) with PTH effects in a cartilage system, cultures of rat epiphysial cartilage cells were incubated with full-length PTH and selected PTH fragments (Table 3). CK activity was stimulated by bPTH(1-84) and hPTH(28-48) but not by hPTH(25-39) or hPTH(34-47). […] The comparison between the complete molecule and the mid-regional fragment hPTH (28-48) is similar to but not identical with the results obtained for calvaria cell cultures (FIGS. 10 and 11) and in the chick sternum chondrocyte system; cf. Biochem. J., 252 (1988) 263-268 (11; Farndale et al.),

[3] = test system: osteoblast enriched rat embryo calvaria cell cultures; assay: CK specific activity in rat embryo calvaria cell cultures; format: cell-based; settings: for increase of CK activity (in words): treated for 24 h; for CK specific activity, effect of fragment (experimental value/control value): 100 nM, 24 h, control 457 ± 46 nmol/min per mg of protein
Procedure, shortened: (§1)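 Osteoblast-enriched rat embryo calvaria cultures stimulated with PTH fragments from the central portion of the molecule. Cyclic AMP measured 15 min after stimulation; CK specific activity measured 24 h after stimulation. Values are means ±S.E.M., N≥5, compared with controls by Student's T test.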

[4] = test system: osteoblast enriched rat embryo calvaria cell cultures; assay: Cyclic AMP production in rat embryo calvaria cell cultures; format: cell-based; settings: 100 nM; 15 min; control 29 ± 2.9 pmol/mg of protein
Procedure, shortened: as §1

[5] = test system: osteoblast enriched rat embryo calvaria cell cultures; assay: DNA synthesis ([3H]thymidine incorporation) in rat embryo calvaria cell cultures; format: cell-based; settings: for [3H)Thymidine incorporation, effect of fragment (experimental value/control value): 100 nM, 24 h, control 624 ± 73 c.p.m./μg of DNA
Procedure, shortened: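 Cultures stimulated with bPTH (1-84); [3H]thymidine incorporation into DNA measured 24 h after stimulation. Values are means ±S.E.M., N≥5, compared with controls by Student's t test.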

ROS 17/2.8 cells = assay: Inhibition of bPTH(1-34)-stimulated cAMP synthesis of intact ROS 17/2.8 cells; format: cell-based, rat; settings: 30 nM hPTH(28-48) added to 100 nM bPTH(1-34); 1 mM IBMX; 10 min
Protocol: FIG. 9 is a graphical representation showing the cAMP yields [nitrogenic effect of bPTH (1-34].
100 nM bPTH(1-34) were used to stimulate cAMP synthesis of intact ROS 17/2.8 cells (cell density 1.3×10^6 cells/cm^2) in the presence of 1 mM IBMX for 10 min. cAMP yields were determined by radio assay. Based on the conditions mentioned, the cAMP basal value of non-stimulated cells corresponds to 8 pmol/well. This effect of bPTH(1-34) can be inhibited by an additional doses of 30 nM hPTH(28-48) up to about 50%; cf. FIG. 9.

renal PTH receptor = settings: Adv. Protein Chemistry 35 (1982) 323 ff. (Potts et al.); cited from earlier work
[6] = test system: chondrocytes isolated from the sterna of 16-day-old chicken embryos; assay: Determination of cell number of chondrocyte cultures; format: cell-based; settings: induced for 24 hours; non-induced 41,000 cells/ml
Protocol: FIG. 7 is a comparative graph showing cell number after incubation of the non-induced cultures compared to cultures induced with hPTH (28-48) for 24 hours.
FIG. 1: In order to determine the incorporation of ^3 H-methylthymidine into total DNA the cells were cultivated on microtiter plates in M199 medium at a concentration of foetal calf serum (FCS) of less than 0.5% (by volume). The cell density of the chondrocytes that reacted to the addition of PTH with an increase in the incorporation of ^3 H-methylthymidine into the total DNA was from 1250 to 6000 cells/microtitre well (diameter 6 mm) at the time of plating-out. […] The incorporation of ^3 H-methylthymidine into the total DNA was determined as follows. After removing the radioactive medium, the adherent growing chondrocytes were washed with PBS and lysed in the microtitre wells. The total DNA was then precipitated under acid conditions at low temperature and transferred onto filter papers using a semi-automatic harvesting device. The rate of incorporation into total DNA could then be determined; cf. FIG. 1. […] The concentration for semi-maximum stimulation was from 9 to 15 nM for bPTH(1-84) and from 50 to 75 nM for the PTH fragments bPTH(1-34) and bPTH(3-34). In contrast, the PTH fragment hPTH(28-48), which, according to Adv. Protein Chemistry, 35 (1982) 323 ff.

renal adenylate cyclase = settings: Adv. Protein Chemistry 35 (1982) 323 ff. (Potts et al.), cited from earlier work

| Substance | stimulation of DNA synthesis (in words) [1] | [^3 H]Thymidine incorporation into DNA [1] [c.p.m./plate] | CK specific activity [2] | increase of CK activity (in words) [3] | Cyclic AMP concentration, effect of fragment (experimental value/control value) [4] | stimulation of DNA synthesis (in words) [5] | [3H)Thymidine incorporation, effect of fragment (experimental value/control value) [5] | CK specific activity, effect of fragment (experimental value/control value) [3] | inhibition of the cAMP synthesis stimulated by bPTH(1-34) (ROS 17/2.8 cells) | binding to the renal PTH receptor (renal PTH receptor) | stimulation of CK activity (in words) [2] | total cell number [6] | stimulation of renal adenylate cyclase (renal adenylate cyclase) | stimulation of renal adenylate cyclase (renal adenylate cyclase; listed as hPTh(28-48)) |
| --- | --- | --- | --- | --- | --- | --- | --- | --- | --- | --- | --- | --- | --- | --- |
| hPTH(34-47): PTH fragment 34-47, human source; comparative example (FVALGAPLAPRDAG; Parathyroid hormone; UniProt P01270 65-78, looked up, fragment) [reference compound] | stimulated by all molecules tested except | 356 ± 75 | 236 ± 32 nmol/min per mg of protein | inactive |  |  |  |  |  |  |  |  |  |  |
| hPTH(25-39): PTH fragment 25-39, human source (RKKLQDVHNFVALGA; Parathyroid hormone; UniProt P01270 56-70, looked up, fragment) |  | 544 ± 44 | 268 ± 36 nmol/min per mg of protein |  | 0.87 ± 0.30 | maximal | 2.96 ± 0.18 | 2.15 ± 0.24 |  |  |  |  |  |  |
| hPTH(28-48): mid-regional PTH fragment 28-48, human source (LQDVHNFVALGAPLAPRDAGS; Parathyroid hormone; UniProt P01270 59-79, looked up, fragment) |  | 731 ± 44 | 346 ± 36 nmol/min per mg of protein | maximally active | 1.22 ± 0.09 | maximal | 2.82 ± 0.18 | 2.15 ± 0.15 | about 50% | does not bind to the renal PTH receptor | stimulated | 63,000 cells/ml | does not stimulate renal adenylate cyclase | will not stimulate renal adenylate cyclase |
